Reference: patent publication US12624027B2, “Salts and polymorphic forms of 6-chloro-7-(4-(4-chlorobenzyl)piperazin-1-yl)-2-(1,3-dimethyl-1H-pyrazol-4-yl)-3H-imidazo[4,5-b]pyridine” (ELLIPSES PHARMA LTD, priority 2020, dated 2026)

What was measured:
[1] = Thermodynamic solubility assessment in biological media (FaSSIF, FeSSIF, FaSSGF), HPLC of mother liquors; type: physicochemical; conditions: listed as Compound A free base
Procedure: The thermodynamic solubility of Compound A free base, Compound A fumarate Form 1 and Compound A hemi-fumarate Form 3 was assessed in 3 biological media: Fasted State Simulated Intestinal Fluid (FaSSIF); Fed State Simulated Intestinal Fluid (FeSSIF) and Fasted State Simulated Gastric Fluid (FaSSGF).
The following procedure was carried out. Approximately 10 mg of material was weighed into 3×1.5 mL glass vials. 0.02 mL aliquots of appropriate buffer were added to each vial until a final concentration of 10 mg/mL was obtained. The samples were then filtered via centrifugation and the mother liquors analyzed by HPLC.

[2] = system: cytochrome P450; conditions: cited from earlier work
[3] = biological target: T1, Aurora A (Homo sapiens, UniProt O14965); conditions: cited from earlier work
T1 sequence (O14965 1-403): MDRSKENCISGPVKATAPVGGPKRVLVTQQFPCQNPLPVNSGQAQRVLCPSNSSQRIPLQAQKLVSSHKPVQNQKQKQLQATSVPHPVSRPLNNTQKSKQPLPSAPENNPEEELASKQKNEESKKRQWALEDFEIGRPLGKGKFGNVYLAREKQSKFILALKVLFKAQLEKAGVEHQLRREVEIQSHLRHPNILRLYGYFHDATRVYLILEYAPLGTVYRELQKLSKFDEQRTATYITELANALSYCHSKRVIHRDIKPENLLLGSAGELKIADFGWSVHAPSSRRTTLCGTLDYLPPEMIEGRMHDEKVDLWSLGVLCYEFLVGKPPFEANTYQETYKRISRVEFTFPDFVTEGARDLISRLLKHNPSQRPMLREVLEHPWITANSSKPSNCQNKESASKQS

[4] = biological target: Aurora B (Homo sapiens, UniProt Q96GD4); conditions: cited from earlier work
Chain of Aurora B (Q96GD4 whole entry): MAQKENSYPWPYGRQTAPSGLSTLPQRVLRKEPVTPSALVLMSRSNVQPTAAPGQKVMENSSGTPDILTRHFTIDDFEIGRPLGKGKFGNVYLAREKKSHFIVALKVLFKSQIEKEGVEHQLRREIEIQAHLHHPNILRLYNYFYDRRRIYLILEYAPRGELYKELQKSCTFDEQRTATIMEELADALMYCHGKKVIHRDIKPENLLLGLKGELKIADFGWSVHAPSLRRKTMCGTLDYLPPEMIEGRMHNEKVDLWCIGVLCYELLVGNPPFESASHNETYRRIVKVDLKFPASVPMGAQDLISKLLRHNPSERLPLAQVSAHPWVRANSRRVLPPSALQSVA

[5] = biological target: T2, FLT3 (Homo sapiens, UniProt P36888); conditions: cited from earlier work
T2 sequence (P36888 27-993): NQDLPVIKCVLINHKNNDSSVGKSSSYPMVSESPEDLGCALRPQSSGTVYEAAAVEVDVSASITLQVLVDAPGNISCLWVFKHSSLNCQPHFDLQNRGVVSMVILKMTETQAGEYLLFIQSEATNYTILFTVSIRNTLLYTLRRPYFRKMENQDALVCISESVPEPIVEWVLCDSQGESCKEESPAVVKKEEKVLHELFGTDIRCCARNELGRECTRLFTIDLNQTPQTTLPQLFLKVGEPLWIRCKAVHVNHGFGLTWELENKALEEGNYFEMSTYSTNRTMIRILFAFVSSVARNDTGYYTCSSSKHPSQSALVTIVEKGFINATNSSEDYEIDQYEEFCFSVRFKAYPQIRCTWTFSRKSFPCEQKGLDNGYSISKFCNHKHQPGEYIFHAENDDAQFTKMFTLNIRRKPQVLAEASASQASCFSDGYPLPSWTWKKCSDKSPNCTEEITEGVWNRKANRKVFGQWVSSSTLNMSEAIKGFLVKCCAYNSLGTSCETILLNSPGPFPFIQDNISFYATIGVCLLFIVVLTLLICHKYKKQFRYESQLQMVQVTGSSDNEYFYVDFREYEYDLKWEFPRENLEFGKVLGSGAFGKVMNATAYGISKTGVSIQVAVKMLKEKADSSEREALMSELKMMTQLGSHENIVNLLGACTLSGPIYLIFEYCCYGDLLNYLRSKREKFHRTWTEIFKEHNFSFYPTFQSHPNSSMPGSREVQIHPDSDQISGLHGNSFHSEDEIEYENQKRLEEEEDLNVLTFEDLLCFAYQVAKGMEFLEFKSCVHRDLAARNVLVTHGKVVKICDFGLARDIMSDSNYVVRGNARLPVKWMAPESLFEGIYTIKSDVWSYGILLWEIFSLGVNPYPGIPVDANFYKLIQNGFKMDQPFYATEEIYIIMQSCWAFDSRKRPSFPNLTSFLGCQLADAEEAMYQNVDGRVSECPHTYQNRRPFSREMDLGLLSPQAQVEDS

[6] = biological target: hERG (Homo sapiens, UniProt Q12809); conditions: cited from earlier work
Chain of hERG (Q12809 whole entry): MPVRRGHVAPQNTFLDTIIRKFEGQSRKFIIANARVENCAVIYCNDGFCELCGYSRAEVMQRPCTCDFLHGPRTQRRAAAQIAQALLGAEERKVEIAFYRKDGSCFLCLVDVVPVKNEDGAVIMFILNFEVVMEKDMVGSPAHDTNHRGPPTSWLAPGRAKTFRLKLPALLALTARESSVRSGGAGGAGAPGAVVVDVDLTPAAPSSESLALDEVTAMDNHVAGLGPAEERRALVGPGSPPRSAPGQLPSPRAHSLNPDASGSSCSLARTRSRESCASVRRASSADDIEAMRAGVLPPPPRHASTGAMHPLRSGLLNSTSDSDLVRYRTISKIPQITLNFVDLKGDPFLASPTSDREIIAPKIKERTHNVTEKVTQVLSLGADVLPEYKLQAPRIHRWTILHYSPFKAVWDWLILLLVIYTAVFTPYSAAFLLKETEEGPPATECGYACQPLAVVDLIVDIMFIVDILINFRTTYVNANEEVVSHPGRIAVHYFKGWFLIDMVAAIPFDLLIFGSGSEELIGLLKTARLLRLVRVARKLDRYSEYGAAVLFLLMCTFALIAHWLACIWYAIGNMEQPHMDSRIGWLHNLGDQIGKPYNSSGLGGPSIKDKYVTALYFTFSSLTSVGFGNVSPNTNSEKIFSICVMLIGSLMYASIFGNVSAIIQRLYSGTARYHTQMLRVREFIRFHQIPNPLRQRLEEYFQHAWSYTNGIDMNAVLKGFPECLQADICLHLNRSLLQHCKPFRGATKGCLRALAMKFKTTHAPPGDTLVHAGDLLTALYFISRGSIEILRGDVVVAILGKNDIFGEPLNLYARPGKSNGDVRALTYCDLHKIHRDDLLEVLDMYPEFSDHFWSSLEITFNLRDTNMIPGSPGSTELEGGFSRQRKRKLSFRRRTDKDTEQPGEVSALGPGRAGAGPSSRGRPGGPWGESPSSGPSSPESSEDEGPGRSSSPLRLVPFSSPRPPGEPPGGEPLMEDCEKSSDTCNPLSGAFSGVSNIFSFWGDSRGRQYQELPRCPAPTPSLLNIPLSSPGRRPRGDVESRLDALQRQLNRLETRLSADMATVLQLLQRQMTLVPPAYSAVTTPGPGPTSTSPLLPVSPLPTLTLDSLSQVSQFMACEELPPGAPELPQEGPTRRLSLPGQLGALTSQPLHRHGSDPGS

[7] = biological target: T3, Aurora C (Homo sapiens, UniProt Q9UQB9); conditions: cited from earlier work
T3 sequence (Q9UQB9 1-309): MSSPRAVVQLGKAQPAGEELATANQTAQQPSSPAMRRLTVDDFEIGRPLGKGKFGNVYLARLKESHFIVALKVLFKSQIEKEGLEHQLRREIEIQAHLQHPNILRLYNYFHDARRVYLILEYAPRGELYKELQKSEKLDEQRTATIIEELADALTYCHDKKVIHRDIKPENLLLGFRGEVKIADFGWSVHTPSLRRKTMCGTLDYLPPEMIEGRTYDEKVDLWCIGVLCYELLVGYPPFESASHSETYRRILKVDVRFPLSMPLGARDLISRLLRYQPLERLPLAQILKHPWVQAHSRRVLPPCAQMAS

## Cc1nn(C)cc1-c1nc2c(N3CCN(Cc4ccc(Cl)cc4)CC3)c(Cl)cnc2[nH]1 [Compound A, 6-chloro-7-(4-(4-chlorobenzyl)piperazin-1-yl)-2-(1,3-dimethyl-1H-pyrazol-4-yl)-3H-imidazo[4,5-b]pyridine]
[1]; FaSSGF pH 1.6
  Concentration (thermodynamic solubility): 1500 µg/mL
[1]; FaSSIF pH 6.5
  Concentration (thermodynamic solubility): <100 µg/mL
[1]; FeSSIF pH 5.0
  Concentration (thermodynamic solubility): <100 µg/mL
[2]
  interaction with cytochrome P450 activity: minimal interaction
[3]
  activity against Aurora A kinase: high activity
[4]
  activity against Aurora B kinase: high activity
[5]
  activity against FLT3 kinase: high activity
[6]
  interaction with hERG: minimal interaction
[7]
  activity against Aurora C kinase: high activity
